The test system of assay [1] is Rattus norvegicus. In words: Antiinflammatory activity in vivo by carrageenan paw edema assay in rat at a dose of 3 mg/kg. Format: functional. (The carrageenan paw model is a standard test of acute inflammation.)
In assay [2] the test system is Rattus norvegicus. In words: Anti-inflammatory activity in vivo by carrageenan paw edema assay in rat at a dose of 30 mg/kg. Format: functional.
Assay [3] has as its system Rattus norvegicus. In words: Antiinflammatory activity in vivo by carrageenan paw edema assay in rat; NA is inactive. Type of assay: functional, organism-based.
Assay [4] deals with T1, Prostaglandin G/H synthase 1 (Rattus norvegicus, UniProt Q63921).
T1 sequence (Q63921 whole entry): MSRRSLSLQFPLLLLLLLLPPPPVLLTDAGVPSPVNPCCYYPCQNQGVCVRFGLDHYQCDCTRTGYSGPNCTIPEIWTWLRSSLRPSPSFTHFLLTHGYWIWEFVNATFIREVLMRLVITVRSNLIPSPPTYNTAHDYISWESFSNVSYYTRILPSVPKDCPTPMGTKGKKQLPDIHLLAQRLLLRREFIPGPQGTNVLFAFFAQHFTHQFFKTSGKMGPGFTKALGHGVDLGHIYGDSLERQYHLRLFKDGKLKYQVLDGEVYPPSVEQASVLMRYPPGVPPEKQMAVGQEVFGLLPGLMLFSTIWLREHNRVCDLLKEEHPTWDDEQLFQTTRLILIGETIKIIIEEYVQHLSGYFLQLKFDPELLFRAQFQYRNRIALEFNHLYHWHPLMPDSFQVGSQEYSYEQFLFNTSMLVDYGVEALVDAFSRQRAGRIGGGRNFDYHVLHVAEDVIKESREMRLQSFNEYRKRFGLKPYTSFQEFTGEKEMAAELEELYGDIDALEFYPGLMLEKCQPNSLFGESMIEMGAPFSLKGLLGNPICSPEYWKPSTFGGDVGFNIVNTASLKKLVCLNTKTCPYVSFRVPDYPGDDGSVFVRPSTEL
Description: In vitro inhibitory concentration against rat prostaglandin G/H synthase 1

Assay [5] has as its system Rattus norvegicus. In words: Antiinflammatory activity in vivo by carrageenan paw edema assay in rat at a dose of 30 mg/kg; NA is inactive. Format: functional, organism-based. On the set-up: dose 30 mg/kg.
Assay [6] has as its system Rattus norvegicus. In words: Antiinflammatory activity in vivo by carrageenan paw edema assay in rat at a dose of 3 mg/kg; NA is inactive. On the set-up: dose 3 mg/kg. Format: functional, organism-based.
Assay [7] concerns Rattus norvegicus. In words: Antiinflammatory activity in vivo by carrageenan paw edema assay in rat at a dose of 10 mg/kg. As to conditions: read-out: Inhibition.
For assay [8], the system named is Rattus norvegicus. In words: Antiinflammatory activity in vivo by carrageenan paw edema assay in rat at a dose of 30 mg/kg: NA is inactive. Type of assay: functional, organism-based. On the set-up: dose 30 mg/kg.
The species named for assay [9] is Rattus norvegicus. The conditions noted are these: 30 mg/kg.
Description: Antiinflammatory activity in vivo by carrageenan paw edema assay in rat at a dose of 30 mg/kg; NA is not active
Assay [10] is filed under the species Rattus norvegicus. In words: Dose producing ulceration in rats. Type of assay: functional.

pIC50: −log10 of the molar value. Active and inactive are the calls of the source. No cut-off for these calls is given here.

In turn, `Cc1ccc(-c2cc(C(F)(F)F)nn2-c2ccc(S(N)(=O)=O)cc2)cc1` [CELECOXIB] gave an inhibition in vivo at 3 mg/kg in assay [1] of 41%. The inhibition in vivo at 30 mg/kg in [2] is 40%.
The pIC50 is the IC50 on a negative log10 scale, so that one unit is a factor of ten. The low end stands for a large IC50, the high end for a small IC50. On to `CCc1ccc2c(Cc3ccc(Cl)cc3)ccc(C(C)C(=O)O)c2c1` (stereo unspecified), for which, in assay [3], the inhibition result is “inactive”. This molecule gave a pIC50 in assay [4] of 4.21.
In turn, `COc1ccc2c(Cc3ccc(Cl)cc3)cc(CC(=O)O)cc2c1` showed a pIC50 in assay [4] of under 4.00. The inhibition entry in assay [5] is “inactive”.
In turn, `COc1ccc2c(Cc3ccc(C(C)(C)C)cc3)ccc(C(C)C(=O)O)c2c1` (stereo unspecified) showed a pIC50 in [4] of 4.39. Moreover, in assay [2], the inhibition in vivo at 30 mg/kg turned out to be 32%. Moreover, the inhibition entry in assay [6] is “inactive”.
The molecule `COc1ccc2c(Cc3ccccc3Cl)ccc(C(C)C(=O)O)c2c1` (stereo unspecified) had an inhibition in vivo at 3 mg/kg in assay [1] of 5%. For the same molecule, in assay [4], the pIC50 is 5.64. The molecule further came in with an inhibition in vivo at 30 mg/kg in assay [2] of 13%.
As for `CC(C(=O)O)c1ccc(Cc2ccc(F)cc2)c2ccccc12` (stereo unspecified), the pIC50 in [4] is 5.62. Also, the inhibition in vivo at 30 mg/kg in [2] is 16%.
Regarding `COc1ccc2c(c1)c(CC(=O)O)c(C)n2C(=O)c1ccc(Cl)cc1` [INDOMETHACIN], the inhibition in vivo at 10 mg/kg in assay [7] came to 100%.
`COc1ccc2c(Cc3ccc(C(C)=O)cc3)ccc(C(C)C(=O)O)c2c1` (stereo unspecified) had a pIC50 in [4] of 3.66. Further, the inhibition entry in assay [6] and in assay [5] was “inactive” each time.
For the molecule `CCC(C(=O)O)c1ccc(Cc2ccc(F)cc2)c2ccc(OC)cc12` (stereo unspecified), in assay [8], the inhibition result was “inactive”. The molecule further had a pIC50 in assay [4] of 5.14.
For the molecule `CC(C(=O)O)c1ccc(Cc2ccc(Cl)cc2)c2ccc(Cl)cc12` (stereo unspecified), in [9], the inhibition entry was “inactive”. This molecule gave a pIC50 in [4] of under 4.00.
In turn, `COc1ccc2c(Cc3ccc(Cl)cc3)cccc2c1` had a pIC50 in assay [4] of under 4.00. The inhibition entry in assay [5] was “inactive”.
As to `COc1ccc2c(Cc3ccc(C)cc3)ccc(C(C)C(=O)O)c2c1` (stereo unspecified), in assay [1], the inhibition in vivo at 3 mg/kg amounted to 30%. The pIC50 in assay [4] is 5.55. The same molecule registered an inhibition in vivo at 30 mg/kg in [2] of 49%.
The molecule `COc1ccc2c(C(C)C(=O)O)ccc(Cc3ccc(F)cc3)c2c1` (stereo unspecified) gave a pIC50 in assay [4] of under 4.00. The inhibition entry in [5] is “inactive”.
For `CS(=O)(=O)c1ccc(C2=C(c3ccccc3)C(=O)OC2)cc1` [ROFECOXIB], in assay [1], the inhibition in vivo at 3 mg/kg stood at 41%.
Regarding `COc1ccc(Cc2ccc(C(C)C(=O)O)c3cc(OC)ccc23)cc1` (stereo unspecified), in assay [1], the inhibition in vivo at 3 mg/kg came to 22%. The molecule also had a pIC50 in [4] of 5.06. For the same molecule, the inhibition in vivo at 30 mg/kg in assay [2] was 45%.
The molecule `CCc1ccc(Cc2ccc(C(C)C(=O)O)c3cc(OC)ccc23)cc1` (stereo unspecified) showed a pIC50 in assay [4] of under 4.00. This molecule yielded an inhibition in vivo at 30 mg/kg in [2] of 32%.
`COc1ccc2c(Cc3cccc(Cl)c3)ccc(C(C)C(=O)O)c2c1` (stereo unspecified) gave an inhibition in vivo at 3 mg/kg in assay [1] of 0%. The inhibition in vivo at 30 mg/kg in assay [2] came to 0%.
As for `CCOc1ccc(Cc2ccc(C(C)C(=O)O)c3cc(OC)ccc23)cc1` (stereo unspecified), in assay [1], the inhibition in vivo at 3 mg/kg stood at 27%. The same molecule had a pIC50 in assay [4] of under 4.00. This molecule also had an inhibition in vivo at 30 mg/kg in assay [2] of 52%.
The molecule `CSc1ccc2c(Cc3ccc(Cl)cc3)ccc(C(C)C(=O)O)c2c1` (stereo unspecified) gave a pIC50 in assay [4] of 4.70. In addition, the inhibition in vivo at 30 mg/kg in assay [2] stood at 16%.
Regarding `CC(C(=O)O)c1ccc(Cc2ccc(Cl)cc2)c2ccc(S(C)(=O)=O)cc12` (stereo unspecified), the pIC50 in assay [4] is under 4.00. For the same molecule, the inhibition result in assay [2] was “inactive”.
Broadly, the ED50 is the dose that gives a 50% effect, or the effect in half of the subjects. High values mean weaker potency, low ones greater potency. With `COc1ccc2c(Cc3ccc(Cl)cc3)ccc(C(C)C(=O)O)c2c1` (stereo unspecified), the ED50 in assay [10] was found to be 40 mg/kg. In assay [4], this molecule showed a pIC50 of 5.39. This molecule also yielded an inhibition in vivo at 30 mg/kg in assay [2] of 50%.
On to `COc1ccc2c(Cc3ccccc3)ccc(C(C)C(=O)O)c2c1` (stereo unspecified), for which the inhibition in vivo at 3 mg/kg in [1] amounted to 30%. The pIC50 in assay [4] is 5.82. This molecule yielded an inhibition in vivo at 30 mg/kg in [2] of 58%.
`COc1ccc2c(Cc3ccc(Cl)cc3)c(CC(=O)O)ccc2c1`: the inhibition entry in assay [9] was “inactive”. Besides, the pIC50 in [4] was under 4.00.
Molecule `COc1ccc2c(Cc3ccc(F)cc3)ccc(C(C)C(=O)O)c2c1` (stereo unspecified) gave a pIC50 in assay [4] of 5.77. Further, the inhibition in vivo at 30 mg/kg in [2] was found to be 53%.
Consider `COc1ccc2c(Cc3ccc(Cl)cc3)ccc(CC(=O)O)c2c1`, for which the pIC50 in assay [4] was under 4.00. This molecule also showed an inhibition in vivo at 30 mg/kg in assay [2] of 52%.

The values above are taken from ChEMBL document CHEMBL1133804, “Naphthalene derivatives: A new series of selective cyclooxygenase-2 inhibitors” (Bioorg Med Chem Lett, 2001).
